Structures can show the parent of a compound that is named as a salt.
Tests used:
[1] = biological target: T1, HCV genotype 1b (BK) NS3 modified enzyme with a R155K mutation (Hepatitis C virus genotype 1b, UniProt P26663, R1181K); assay: HCV NS3 protease time-resolved fluorescence (TRF) assay, genotype 1b R155K; assay type: biochemical; conditions: Ki 1b R155K
T1 construct: HCV genotype 1b (BK) NS3 modified enzyme
Summary of the method: (§1)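 IC50 values derive from 4-parameter fitting of TRF signal after a 6 h room-temperature cleavage of 25 nM peptide substrate by NS3/NS4A that had been pre-incubated 10 min with compound.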

[2] = biological target: HCV NS3 protease genotype 3a (3A-1) (Hepatitis C virus genotype 3a, UniProt Q81258); assay: HCV NS3 protease time-resolved fluorescence (TRF) assay, genotype 3a; assay type: biochemical; conditions: Ki 3a
Summary of the method: as §1

[3] = genotype 1b (BK) NS3 R155K, single value
[4] = first of two values printed in the cell (not explained)
[5] = second of two values printed in the cell (not explained)

SMILES | Ki [1, 3] [nM] | Ki [2] [nM] | Ki [1, 4] [nM] | Ki [1, 5] [nM]
C=C[C@@H]1C[C@]1(NC(=O)[C@@H]1C[C@@H]2CN1C(=O)[C@H](C(C)(C)C)NC(=O)O[C@@H]1C[C@H]1CCCCCc1c(nc3ccccc3c1OCCCNC1CCC1)O2)C(=O)NS(=O)(=O)C1(C)CC1 [Example 180, (1aR,5S,8S,10R,22aR)-5-tert-butyl-17-[3-(cyclobutylamino)propoxy]-N-[(1R,2S)-2-ethenyl-1-{[(1-methylcyclopropyl)sulfonyl]carbamoyl}cyclopropyl]-3,6-dioxo-1,1a,3,4,5,6,9,10, 18,19,20,21,22,22a-tetradeca hydro-8H-7,10-methanocyclopropa[18,19][1,10,3,6] dioxadiazacyclononadecino[11,12-b] quinoline-8-carboxamide] | 0.037 | 0.58 | – | –
C=C[C@@H]1C[C@]1(NC(=O)[C@@H]1C[C@@H]2CN1C(=O)[C@H](C(C)(C)C)NC(=O)O[C@@H]1C[C@H]1CCCCCc1c(nc3ccccc3c1OCCCN(C)C(C)C(O)c1ccccc1)O2)C(=O)NS(=O)(=O)C1(C)CC1 (stereo partly drawn) [Example 190, (1aR,5S,8S,10R,22aR)-5-tert-butyl-N-[(1R,2S)-2-ethenyl-1-{[(1-methylcyclopropyl)sulfonyl]carbamoyl}cyclopropyl]-17-{3-[(1-hydroxy-1-phenylpropan-2-yl)(methyl)amino]propoxy}-3,6-dioxo-1,1a,3,4,5,6,9,10,18,19,20,21,22,22a-tetradecahydro-8H-7,10-methanocyclopropa[18,19][1,10,3,6] dioxadiazacyclononadecino[11,12-b] quinoline-8-carboxamide] | 0.074 | 1.5 | – | –
C=C[C@@H]1C[C@]1(NC(=O)[C@@H]1C[C@@H]2CN1C(=O)[C@H](C1CCCC1)NC(=O)O[C@@H]1CCC[C@H]1CC/C=C/Cc1c(nc3ccccc3c1OP(=O)(OCC)OCC)O2)C(=O)NS(=O)(=O)C1CC1 [Example 38, (3aR,7S,10S,12R,21E,24aS)-7-cyclopentyl-10-({(1R,2S)-1-[(cyclopropylsulfonyl)carbamoyl]-2-ethenylcyclopropyl}carbamoyl)-5,8-dioxo-1,2,3,3a,5,6,7,8,11,12,20,23,24,24a-tetradecahydro-10H-9,12-methanocyclopenta[18,19][1,10,3,6]dioxadiazacyclononadecino[11,12-b]quinolin-19-yl diethyl phosphate] | 1.2 | 94 | – | –
C=C[C@@H]1C[C@]1(NC(=O)[C@@H]1C[C@@H]2CN1C(=O)[C@H](C1CCCCC1)NC(=O)O[C@@H]1C[C@H]1CCCCCc1c(nc3ccccc3c1OC1CCN(CCF)CC1)O2)C(=O)NS(=O)(=O)C1(C)CC1 [Example 272, 4-{[(1aR,5S,8S,10R,22aR)-5-cyclohexyl-8-{[(1R,2S)-2-ethenyl-1-{[(1-methylcyclopropyl)sulfonyl]carbamoyl}cyclopropyl]carbamoyl}-3,6-dioxo-1,1a,3,4,5,6,9,10,18,19,20,21,22,22a-tetradecahydro-8H-7,10-methanocyclopropa[18,19][1,10,3,6]dioxadiazacyclononadecino[11,12-b]quinolin-17-yl]oxy}-1-(2-fluoroethyl)piperidinium formate] | – | 2.12 | 0.015 | 0.128
C=C[C@@H]1C[C@]1(NC(=O)[C@@H]1C[C@@H]2CN1C(=O)[C@H](C1CCCC1)NC(=O)O[C@@H]1CCC[C@H]1CC/C=C/Cc1c(nc3ccccc3c1OCCCN1CCCCC1)O2)C(=O)NS(=O)(=O)C1(C)CC1 [Example 58, (3aR,7S,10S,12R,21E,24aS)-7-cyclopentyl-N-[(1R,2S)-2-ethenyl-1-{[(1-methylcyclopropyl)sulfonyl]carbamoyl}cyclopropyl]-5,8-dioxo-19-[3-(piperidin-1-yl)propoxy]-1,2,3,3a,5,6,7,8,11,12,20,23,24,24a-tetra decahydro-10H-9,12-methanocyclopenta[18,19][1,10,3,6] dioxadiazacyclononadecino[11,12-b] quinoline-10-carboxamide] | 0.1 | 0.57 | – | –
O=C1N[C@@H](C2CCCC2)C(=O)N2C[C@@H](C[C@H]2C(=O)N[C@]2(C(=O)NS(=O)(=O)C3CC3)C[C@H]2C2CC2)Oc2nc3ccccc3c(O)c2C/C=C/CC[C@@H]2CCC[C@H]2O1 [Example 21, (3aR,7S,10S,12R,21E,24aS)-7-cyclopentyl-N-[(1S,2R)-2-[(cyclopropylsulfonyl)carbamoyl]-1,1′-bi(cyclopropyl)-2-yl]-19-hydroxy-5,8-dioxo-1,2,3,3a,5,6,7,8,11,12,20,23,24,24a-tetradecahydro-10H-9,12-methanocyclopenta[18,19][1,10,3,6]dioxadiazacyclononadecino[11,12-b]quinoline-10-carboxamide] | 0.51 | 9.6 | – | –
C=C[C@@H]1C[C@]1(NC(=O)[C@@H]1C[C@@H]2CN1C(=O)[C@H](C(C)(C)C)NC(=O)O[C@@H]1C[C@H]1CCCCCc1c(nc3ccccc3c1OC1C3COCC1CN(CCOC)C3)O2)C(=O)NS(=O)(=O)C1(C)CC1 (stereo partly drawn) [Example 261, (1aR,5S,8S,10R,22aR)-5-tert-butyl-N-[(1R,2S)-2-ethenyl-1-{[(1-methylcyclopropyl)sulfonyl]carbamoyl}cyclopropyl]-17-{[7-(2-methoxyethyl)-3-oxa-7-azabicyclo[3.3.1]non-9-yl]oxy}-3,6-dioxo-1,1a,3,4,5,6,9,10,18,19,20,21,22,22a-tetradecahydro-8H-7,10-methanocyclopropa[18,19][1,10,3,6]dioxadiazacyclononadecino[11,12-b]quinoline-8-carboxamide] | – | 3.45 | 0.026 | 0.155
C=C[C@@H]1C[C@]1(NC(=O)[C@@H]1C[C@@H]2CN1C(=O)[C@H](C1CCCCC1)NC(=O)O[C@@H]1C[C@H]1CCCCCc1c(nc3ccccc3c1OCCCSc1nncn1C)O2)C(=O)NS(=O)(=O)C1(C)CC1 [Example 171, (1aR,5S,8S,10R,22aR)-5-cyclohexyl-N-[(1R,2S)-2-ethenyl-1-{[(1-methylcyclopropyl)sulfonyl]carbamoyl}cyclopropyl]-17-{3-[(4-methyl-4H-1,2,4-triazol-3-yl)sulfanyl]propoxy}-3,6-dioxo-1,1a,3,4,5,6,9,10, 18,19,20,21,22,22a-tetradecahydro-8H-7,10-methanocyclopropa[18,19][1,10,3,6] dioxadiazacyclononadecino[11,12-b] quinoline-8-carboxamide] | 0.099 | 2 | – | –
C=C[C@@H]1C[C@]1(NC(=O)[C@@H]1C[C@@H]2CN1C(=O)[C@H](C1CCCCC1)NC(=O)O[C@@H]1C[C@H]1CCCCCc1c(nc3ccccc3c1OCCCNC1CC(F)(F)C1)O2)C(=O)NS(=O)(=O)C1(C)CC1 [Example 243, (1aR,5S,8S,10R,22aR)-5-cyclohexyl-17-{3-[(3,3-difluorocyclobutyl)amino]propoxy}-N-[(1R,2S)-2-ethenyl-1-{[(1-methylcyclopropyl)sulfonyl]carbamoyl}cyclopropyl]-3,6-dioxo-1,1a,3,4,5,6,9,10,18,19,20,21,22,22a-tetradecahydro-8H-7,10-methanocyclopropa[18,19][1,10,3,6]dioxadiazacyclononadecino[11,12-b]quinoline-8-carboxamide] | – | 3.31 | 0.033 | 0.275
C=C[C@@H]1C[C@]1(NC(=O)[C@@H]1C[C@@H]2CN1C(=O)[C@H](C(C)(C)C)NC(=O)O[C@@H]1C[C@H]1CCCCCc1c(nc3cc(C)ccc3c1OCCCN1CCCC1)O2)C(=O)NS(=O)(=O)C1(C)CC1 [Example 146, (1aR,5S,8S,10R,22aR)-5-tert-butyl-N-[(1R,2S)-2-ethenyl-1-{[(1-methylcyclopropyl)sulfonyl]carbamoyl}cyclopropyl]-14-methyl-3,6-dioxo-17-[3-(pyrrolidin-1-yl)propoxy]-1,1a,3,4,5,6,9,10,18, 19,20,21,22,22a-tetradecahydro-8H-7,10-methano cyclopropa[18,19][1,10,3,6] dioxadiazacyclonona decino[11,12-b]quinoline-8-carboxamide] | 0.054 | 0.68 | – | –
C=CC1C[C@]1(NC(=O)[C@@H]1C[C@@H]2CN1C(=O)[C@H](C1CCCC1)NC(=O)O[C@@H]1CCC[C@H]1CC/C=C/Cc1c(nc3ccccc3c1OCCCN(C)C)O2)C(=O)NS(=O)(=O)C1CC1 (stereo partly drawn) [Example 77, (3aR,7S,10S,12R,21E,24aS)-7-cyclo pentyl-N-{(1R,2S)-1-[(cyclopropylsulfonyl)carbamoyl]-2-ethenylcyclopropyl}-19-[3-(dimethylamino)propoxy]-5,8-dioxo-1,2,3,3a,5,6,7,8,11,12,20,23,24, 24a-tetradecahydro-10H-9,12-methano cyclopenta[18,19][1,10,3,6] dioxadiazacyclo-nonadecino[11,12-b]quinoline-10-carboxamide] | 0.09 | 0.72 | – | –
C=C[C@@H]1C[C@]1(NC(=O)[C@@H]1C[C@@H]2CN1C(=O)[C@H](C(C)(C)C)NC(=O)O[C@@H]1C[C@H]1CCCCCc1c(nc3ccccc3c1OCCCN1CC(F)(F)C1)O2)C(=O)NS(=O)(=O)C1(C)CC1 [Example 206, (1aR,5S,8S,10R,22aR)-5-tert-butyl-17-[3-(3,3-difluoroazetidin-1-yl)propoxy]-N-[(1R,2S)-2-ethenyl-1-{[(1-methylcyclopropyl)sulfonyl]carbamoyl}cyclopropyl]-3,6-dioxo-1,1a,3,4,5,7,9,10,18,19,20,21,22,22a-tetradecahydro-8H-7,10-methanocyclopropa[18,19][1,10,3,6] dioxadiazacyclononadecino[11,12-b] quinoline-8-carboxamide] | 0.2 | 2.6 | – | –
